{
  "source": "patent US9029337B2",
  "about": "“Modulation of factor 7 expression” (Isis Pharmaceuticals, Inc., priority 2007, dated 2015)",
  "note": "Strand notation (5' to 3'): a small letter for the sugar, then the base; units joined by * are phosphorothioate-linked, units joined directly phosphodiester-linked; [ ] holds rarer units or linkages, { } end groups; capitals alone tell only the bases. e = 2'-O-(2-methoxyethyl) (MOE); [5mC] = 5-methylcytosine; d = 2'-deoxy (DNA)",
  "data": [
    {"system": "human Factor 7 mRNA", "assay": "Antisense inhibition of human Factor 7 with short (14-mer) oligonucleotides in HepB3 cells, electroporation 1,000 nM", "type": "cell-based", "conditions": "electroporation, 1,000 nM antisense oligonucleotide, approximately 24 hours, Factor 7 mRNA relative to untreated control cells", "outline": "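14-mer 2-10-2 MOE gapmers (full phosphorothioate, 5-methyl-C) electroporated at 1,000 nM into HepB3 cells at 20,000 cells/well. After ~24 h, Factor 7 mRNA by real-time RT-PCR, normalized to RiboGreen total RNA. Reported as % inhibition relative to untreated cells.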", "units": {"% Inhibition": "%"}, "values": [
      {"substance": "435743 (antisense eG*e[5mC]*d[5mC]*dT*d[5mC]*dA*dA*dA*d[5mC]*dA*dT*d[5mC]*eT*eA) [compound 435743]", "% Inhibition": 40},
      {"substance": "435744 (antisense e[5mC]*eT*dA*d[5mC]*dA*dG*d[5mC]*d[5mC]*dT*d[5mC]*dA*dA*eA*e[5mC]) [compound 435744]", "% Inhibition": 19},
      {"substance": "435745 (antisense eG*eG*dG*dA*dG*d[5mC]*dT*dA*d[5mC]*dA*dG*d[5mC]*e[5mC]*eT) [compound 435745]", "% Inhibition": 0},
      {"substance": "435746 (antisense eA*eT*dT*dG*dA*d[5mC]*dA*dA*dG*dG*dG*d[5mC]*eT*eG) [compound 435746]", "% Inhibition": 32},
      {"substance": "435747 (antisense eA*eT*dA*dT*d[5mC]*dA*dT*dT*dG*dA*d[5mC]*dA*eA*eG) [compound 435747]", "% Inhibition": 0},
      {"substance": "435748 (antisense eT*e[5mC]*d[5mC]*d[5mC]*dA*dG*dG*dG*dT*d[5mC]*dT*d[5mC]*eT*eG) [compound 435748]", "% Inhibition": 18},
      {"substance": "435749 (antisense e[5mC]*eA*dG*d[5mC]*d[5mC]*dA*dG*dG*dG*d[5mC]*d[5mC]*dT*eG*eG) [compound 435749]", "% Inhibition": 29},
      {"substance": "435750 (antisense e[5mC]*eA*d[5mC]*dT*dG*d[5mC]*dA*dG*d[5mC]*d[5mC]*dA*dG*eG*eG) [compound 435750]", "% Inhibition": 14},
      {"substance": "435751 (antisense e[5mC]*eT*dT*dG*d[5mC]*d[5mC]*dA*dG*dG*dT*d[5mC]*d[5mC]*eT*e[5mC]) [compound 435751]", "% Inhibition": 28},
      {"substance": "435752 (antisense eT*eG*d[5mC]*dA*dG*d[5mC]*dT*dT*dG*d[5mC]*d[5mC]*dA*eG*eG) [compound 435752]", "% Inhibition": 12},
      {"substance": "435753 (antisense eA*eA*dG*dA*dG*dT*dG*d[5mC]*dA*dG*d[5mC]*dT*eT*eG) [compound 435753]", "% Inhibition": 9},
      {"substance": "435754 (antisense eT*e[5mC]*dA*dG*d[5mC]*dA*dA*dG*dA*dG*dT*dG*e[5mC]*eA) [compound 435754]", "% Inhibition": 16},
      {"substance": "435755 (antisense eG*eG*dG*dA*d[5mC]*dT*d[5mC]*dA*dG*d[5mC]*dA*dA*eG*eA) [compound 435755]", "% Inhibition": 0},
      {"substance": "435756 (antisense eT*eG*d[5mC]*d[5mC]*d[5mC]*dA*dG*dG*dA*d[5mC]*dG*dG*e[5mC]*e[5mC]) [compound 435756]", "% Inhibition": 20},
      {"substance": "435757 (antisense eT*eG*d[5mC]*d[5mC]*dT*dG*dA*dG*dT*dG*d[5mC]*d[5mC]*e[5mC]*e[5mC]) [compound 435757]", "% Inhibition": 51},
      {"substance": "435758 (antisense e[5mC]*e[5mC]*d[5mC]*dT*dG*dA*dG*d[5mC]*dT*dG*dG*dG*e[5mC]*eA) [compound 435758]", "% Inhibition": 4},
      {"substance": "435759 (antisense eG*eA*dG*d[5mC]*d[5mC]*dA*d[5mC]*dA*dG*dA*dG*d[5mC]*e[5mC]*eT) [compound 435759]", "% Inhibition": 11},
      {"substance": "435760 (antisense eT*e[5mC]*dT*dT*dG*dG*dG*dT*dG*dT*dG*dG*eA*eT) [compound 435760]", "% Inhibition": 17},
      {"substance": "435761 (antisense e[5mC]*eA*dG*dA*dT*dG*dA*dA*dA*dA*d[5mC]*dT*eT*eG) [compound 435761]", "% Inhibition": 5},
      {"substance": "435762 (antisense e[5mC]*eA*dG*dG*dT*dG*dT*dT*dA*dA*dG*dG*eT*eG) [compound 435762]", "% Inhibition": 0},
      {"substance": "435763 (antisense eA*eG*dG*dA*dG*dA*dA*dA*dG*dG*dT*d[5mC]*eA*eG) [compound 435763]", "% Inhibition": 2},
      {"substance": "435764 (antisense eT*eG*dA*dG*dA*dG*d[5mC]*dT*dG*d[5mC]*dA*d[5mC]*e[5mC]*eT) [compound 435764]", "% Inhibition": 8},
      {"substance": "435765 (antisense e[5mC]*eA*dA*dA*dG*dT*dT*d[5mC]*dT*d[5mC]*dT*dG*e[5mC]*e[5mC]) [compound 435765]", "% Inhibition": 1},
      {"substance": "435766 (antisense eG*e[5mC]*dA*d[5mC]*d[5mC]*dT*dG*d[5mC]*dA*dG*d[5mC]*d[5mC]*eA*eG) [compound 435766]", "% Inhibition": 51},
      {"substance": "435767 (antisense e[5mC]*eA*d[5mC]*d[5mC]*dA*dA*dG*dT*dT*dT*dA*dT*eG*eG) [compound 435767]", "% Inhibition": 0},
      {"substance": "435768 (antisense eG*e[5mC]*d[5mC]*dT*dG*dG*dA*dT*dG*d[5mC]*dT*dG*eG*eT) [compound 435768]", "% Inhibition": 75},
      {"substance": "435769 (antisense eT*eT*d[5mC]*dT*dT*dT*dG*dA*dA*dA*dA*dA*eT*eA) [compound 435769]", "% Inhibition": 0},
      {"substance": "435770 (antisense e[5mC]*eT*d[5mC]*dT*dG*dA*dG*dA*dG*dG*d[5mC]*d[5mC]*e[5mC]*e[5mC]) [compound 435770]", "% Inhibition": 81},
      {"substance": "435771 (antisense eG*eT*d[5mC]*dA*dT*dA*dA*dG*dG*d[5mC]*d[5mC]*dA*eT*eG) [compound 435771]", "% Inhibition": 13},
      {"substance": "435772 (antisense eG*e[5mC]*dA*dG*dT*d[5mC]*d[5mC]*d[5mC]*dT*dG*d[5mC]*dT*e[5mC]*eA) [compound 435772]", "% Inhibition": 42},
      {"substance": "435773 (antisense e[5mC]*eA*dG*dG*dG*dA*dA*d[5mC]*dA*d[5mC]*d[5mC]*d[5mC]*eT*e[5mC]) [compound 435773]", "% Inhibition": 57},
      {"substance": "435774 (antisense eG*eT*d[5mC]*d[5mC]*d[5mC]*dA*dG*dG*dG*dA*dA*dG*eG*e[5mC]) [compound 435774]", "% Inhibition": 17},
      {"substance": "435775 (antisense eT*e[5mC]*dT*dG*dG*dA*dA*dG*dG*dA*dA*d[5mC]*eA*eG) [compound 435775]", "% Inhibition": 25},
      {"substance": "435776 (antisense eG*eG*dG*dA*d[5mC]*dA*d[5mC]*dT*d[5mC]*dA*d[5mC]*dA*e[5mC]*eT) [compound 435776]", "% Inhibition": 51},
      {"substance": "435777 (antisense e[5mC]*eT*dG*dA*dG*dG*dA*dT*dG*d[5mC]*dA*dG*eG*e[5mC]) [compound 435777]", "% Inhibition": 53},
      {"substance": "435778 (antisense eG*e[5mC]*dT*dA*d[5mC]*dT*dG*dG*dG*d[5mC]*d[5mC]*dA*e[5mC]*eG) [compound 435778]", "% Inhibition": 49},
      {"substance": "435779 (antisense eT*eG*dA*dG*d[5mC]*dG*d[5mC]*dG*dG*dA*dA*dG*eA*eA) [compound 435779]", "% Inhibition": 50},
      {"substance": "435780 (antisense eG*eG*dA*dG*dG*dG*dA*d[5mC]*dG*dA*d[5mC]*d[5mC]*eT*eT) [compound 435780]", "% Inhibition": 28},
      {"substance": "435781 (antisense eA*e[5mC]*d[5mC]*dA*d[5mC]*dG*d[5mC]*dG*dG*dT*dG*dG*eT*eG) [compound 435781]", "% Inhibition": 0},
      {"substance": "435782 (antisense e[5mC]*eG*dT*dG*d[5mC]*dG*d[5mC]*dT*d[5mC]*dA*dG*d[5mC]*eT*e[5mC]) [compound 435782]", "% Inhibition": 36},
      {"substance": "435783 (antisense eA*eA*dA*d[5mC]*d[5mC]*dG*dG*d[5mC]*dA*dT*dG*d[5mC]*eG*e[5mC]) [compound 435783]", "% Inhibition": 49},
      {"substance": "435784 (antisense e[5mC]*e[5mC]*dT*dA*dA*dG*dT*dG*dT*dG*d[5mC]*dT*eT*eT) [compound 435784]", "% Inhibition": 17},
      {"substance": "435785 (antisense eA*eG*d[5mC]*dT*dT*d[5mC]*dT*d[5mC]*dA*d[5mC]*d[5mC]*dA*e[5mC]*eG) [compound 435785]", "% Inhibition": 46},
      {"substance": "435786 (antisense eA*eG*dG*dT*dG*dA*d[5mC]*d[5mC]*d[5mC]*dG*dT*dG*eA*eG) [compound 435786]", "% Inhibition": 68},
      {"substance": "435787 (antisense eG*eA*dG*dT*dG*dT*dG*dA*dG*dG*d[5mC]*dT*eT*e[5mC]) [compound 435787]", "% Inhibition": 34},
      {"substance": "435788 (antisense e[5mC]*e[5mC]*dT*dG*dT*dG*dA*dG*dT*dG*dT*dG*eA*eG) [compound 435788]", "% Inhibition": 20},
      {"substance": "435789 (antisense e[5mC]*eA*dT*dG*dT*dT*dA*dG*d[5mC]*d[5mC]*dT*dT*eT*eG) [compound 435789]", "% Inhibition": 3},
      {"substance": "435790 (antisense eA*eT*dG*dA*d[5mC]*d[5mC]*dA*dT*d[5mC]*d[5mC]*dT*d[5mC]*eA*eA) [compound 435790]", "% Inhibition": 1},
      {"substance": "435791 (antisense eA*eT*dG*dA*dG*dA*dA*dA*dT*dG*d[5mC]*dT*eT*eT) [compound 435791]", "% Inhibition": 0},
      {"substance": "435792 (antisense eT*eG*d[5mC]*dT*dG*dA*dA*dG*dA*dA*dA*d[5mC]*eT*eG) [compound 435792]", "% Inhibition": 9},
      {"substance": "435793 (antisense eT*eG*d[5mC]*dA*dG*dT*dA*dG*d[5mC]*dA*dG*dA*eT*eG) [compound 435793]", "% Inhibition": 27},
      {"substance": "435794 (antisense eG*eA*dG*dG*dT*dA*d[5mC]*dA*d[5mC]*dA*dG*dG*e[5mC]*eT) [compound 435794]", "% Inhibition": 26},
      {"substance": "435795 (antisense eA*e[5mC]*dA*d[5mC]*d[5mC]*d[5mC]*dG*dA*dG*dG*dT*dT*e[5mC]*eA) [compound 435795]", "% Inhibition": 66},
      {"substance": "435796 (antisense eT*eG*dA*d[5mC]*d[5mC]*dA*d[5mC]*dA*d[5mC]*dA*dT*dT*eT*e[5mC]) [compound 435796]", "% Inhibition": 30},
      {"substance": "435797 (antisense eA*eA*dT*d[5mC]*dT*dT*dG*dG*d[5mC]*d[5mC]*d[5mC]*d[5mC]*eT*e[5mC]) [compound 435797]", "% Inhibition": 16},
      {"substance": "435798 (antisense eA*eG*d[5mC]*d[5mC]*dA*dG*dA*d[5mC]*dT*dT*dT*d[5mC]*e[5mC]*eT) [compound 435798]", "% Inhibition": 54},
      {"substance": "435799 (antisense e[5mC]*eT*dG*dG*dT*d[5mC]*d[5mC]*d[5mC]*d[5mC]*dA*dT*d[5mC]*eT*eG) [compound 435799]", "% Inhibition": 33},
      {"substance": "435800 (antisense eG*eG*dA*d[5mC]*d[5mC]*d[5mC]*dA*dA*dA*dG*dT*dG*eG*eG) [compound 435800]", "% Inhibition": 0}
    ]}
  ]
}
